≈ marks a conversion by molar mass, not a printed value. Entries after “also recorded” stand apart in the source; their conditions may differ. Where two headings read alike, the source gives them in different places. Starred links: 1 amine or outer side, 2 acyl side, 3 side chain; linkers in the order of their positions; H or OH if unused. Positions of bridges follow the written chain, without caps; N, C: chain ends. Non-standard residues stand in square brackets, D forms with d. Residues, ends and D or L forms follow the SMILES beside them. *: point of attachment. X1 = CC(C)CCCCCCCCC[C@H](CC(=O)[*:1])O[*:2]; d(aThr) = C[C@@H](O)[C@@H](N)C(=O)O; X2 = CCCCCCCCCCCC(O)CC(=O)*
Legend:
[1] = Cytotoxicity, CyQUANT XTT cell viability assay; assay type: cell-based, Chlorocebus sp.; conditions: Chlorocebus sp. (African green monkey), Vero E6 cells; for IC50 at 72 h: Vero E6 cells (kidney epithelial cells), XTT, mean (standard deviation), fengycin and caspofungin determined at higher concentrations in a subsequent experiment, read-out: IC50 (half maximal inhibitory concentration, cytotoxicity); for viability at 72 h: surfactin 35, WLIP 20, fengycin 50, caspofungin 100 µg/mL, Vero E6 (Fig. 5)
Procedure: (§1) Chlorocebus sp. kidney epithelial cells (Vero E6; ATCC VERO C1008) were cultured in Dulbecco’s Modified Eagle medium (DMEM) High Glucose w/ Stable Glutamine w/ Sodium Pyruvate (VWR, USA) supplemented with 2% (vol/vol) of decomplemented fetal bovine serum (FBS, Biowest, France) and 1% (vol/vol) Penicillin-Streptomycin (VWR, USA). The cells were grown at 37°C in a humidified 5% CO2 atmosphere. Cells were routinely passaged when they reached 100% confluence and were passaged until passage 15.
(§2) The cytotoxic activity of the lipopeptides was assessed using a CyQUANT XTT Cell Viability Assay (Thermo Fisher Scientific) according to the manufacturer’s instructions. […] The cells were then incubated for 72 h at 37°C. The kit was then used following the manufacturer’s instructions, and the plates were read at 450 nm and 660 nm using a Multiskan GO Microplate Spectrophotometer (Thermo Fisher Scientific). The percentage of viable cells was calculated as (AT450 − AT660 − AB450) / (AC450 − AC660) × 100%, where AT450, AT660, AB450, AC450, and AC660 represent the absorbance of the tested well at 450 nm, of the tested well at 660 nm, of the blank (only medium) at 450 nm, of the control cells at 450 nm, and of the control cells at 660 nm, respectively. One hundred percent viability corresponds to the viability of uninfected cells. DMSO concentrations ranging from 0.5% (vol/vol) to 0.001% (vol/vol) were used as a negative control for the assay. Every sample was tested in triplicate.

SARS-CoV-2 [2] = experiment: Replication / antiviral assay, viral RNA in supernatant by RT-qPCR; assay type: cell-based; conditions: for EC50 / EC50 (half maximal effective concentration): mean (standard deviation); for EC50: read-out: EC50 (half maximal effective concentration); for Viral RNA concentration per milliliter: surfactin 35, WLIP 20, caspofungin 100 µg/mL; for Reduction of viral RNA concentration / Reduction in viral RNA: surfactin 35, WLIP 20, fengycin 50, caspofungin 100 µg/mL; for Reduction in viral RNA: 72 h (Fig. 5)
Vero E6 cells = experiment: Cytotoxicity, CyQUANT XTT cell viability assay; assay type: cell-based, Chlorocebus sp.; conditions: for Cytotoxicity: concentrations up to 100 µg/mL, Vero E6, 72 h; for IC50 (half maximal inhibitory concentration, cytotoxicity): Vero E6 cells, 72 h, XTT, mean (standard deviation), fengycin and caspofungin determined at higher concentrations in a subsequent experiment
Procedure: as §1, §2

SARS-CoV-2 [3] = experiment: Binding inhibition: pre-treatment of SARS-CoV-2 and incubation on cells; assay type: cell-based; conditions: virus pre-treated, surfactin 35, WLIP 20, fengycin 50, caspofungin 100 µg/mL
SARS-CoV-2 [4] = assay type: cell-based; conditions: cells pre-treated, surfactin 35, WLIP 20, fengycin 50, caspofungin 100 µg/mL
SARS-CoV-2 [5] = conditions: surfactin 35, WLIP 20, fengycin 50, caspofungin 100 µg/mL; 100% = untreated infected cells at 37°C
Procedure: To determine the impact of lipopeptides on the fusion step, intracellular viral RNA was quantified after infection of cells with SARS-CoV-2 but before the budding step. […] The cells were pre-chilled for 15 min on ice. The cells were infected with SARS-CoV-2 (MOI of 10) in DMEM + 2% FBS and incubated for 2 h on ice with gentle agitation. The inoculum was removed, and the cells were gently washed three times with ice-cold DPBS. The positive control was inactivated to determine the basal viral RNA concentration after binding of the virus. The lipopeptides were added to room temperature DMEM + 2% (vol/vol) FBS and incubated at 37°C for 7 h. […] The cells were rinsed with DPBS, and the wells were dried. The samples were inactivated for 30 min at 70°C before quantification of the viral RNA by RT-qPCR. Every sample was tested in triplicate.

Vero cells = system: Vero cells; parameters: method as in earlier work; conditions: ref 38 (Shekunov et al.); cited from earlier work
SARS-CoV-2 [6] = experiment: Budding inhibition assay; assay type: cell-based; conditions: 10 h pi, surfactin 35 µg/mL
Procedure: Fresh medium was added to the cells, and the plates were incubated for 5 h at 37°C. The supernatant was discarded, and lipopeptides were added to the cells. A sample of cell supernatant was taken every hour for 4 h. After infection, the control was kept at 4°C to inhibit the release of virions, and act as a positive control of the experiment. […] Every sample was tested in triplicate.

SARS-CoV-2 [7] = system: SARS-CoV-2; parameters: method as in doi:10.3390/applmicrobiol2030052; conditions: 1 mg/mL, Vero E6 cells; cited from earlier work
SARS-CoV-2 [8] = experiment: Direct antiviral assay by viral titration (TCID50); conditions: 1 h incubation with virus, vs virus alone
[9] = 100 µg/mL, 72 h pi, compared to untreated infected cells
[10] = 24 h pi, serum diluted five times
[11] = 72 h pi, serum diluted five times, […]
[12] = Severe acute respiratory syndrome coronavirus 2, Vero C1008, 72 h, […]
[13] = SARS-CoV-2 MOI 0.01, Vero E6, viral RNA at 72 h pi by RT-qPCR

Molecule	IC50 at 72 h [1] [µg/mL]	Maximal RNA reduction at 100 µg/mL (SARS-CoV-2 [2]; [9])	viability at 72 h [1] [%]	Cytotoxicity (Vero E6 cells)	Maximal RNA reduction at 100 µg/mL (SARS-CoV-2 [2])	Viral RNA concentration per milliliter (SARS-CoV-2 [2]; [10])	Viral RNA concentration per milliliter (SARS-CoV-2 [2]; 72 h pi)	Reduction of viral RNA concentration (SARS-CoV-2 [2]; [11]) [log]	EC50 (SARS-CoV-2 [2]; [12]) [µg/mL]	Reduction in viral RNA (SARS-CoV-2 [2]) [log]	Binding percentage of SARS-CoV-2 to cells (SARS-CoV-2 [3])	Binding percentage of SARS-CoV-2 to cells (SARS-CoV-2 [4]) [%]	Fusion percentage (SARS-CoV-2 [5]) [%]	IC50 (Vero cells) [µg/mL]	IC50 (half maximal inhibitory concentration, cytotoxicity) (Vero E6 cells)	EC50 (half maximal effective concentration) (SARS-CoV-2 [2]; [13])	also measured
CCC(=O)CCCCC[C@@H]1NC(=O)[C@H]2CCCCN2C(=O)[C@H]([C@@H](C)CC)NC(=O)[C@H](Cc2cn(OC)c3ccccc23)NC1=O [Apicidin]	0.7 (≈ 1.12 µM)	3.7-log	–	–	–	–	–	–	–	–	–	–	–	–	–	–	EC50 (SARS-CoV-2 [2]; Severe acute respiratory syndrome coronavirus 2, Vero C1008, SARS-CoV-2 MOI 0.01, Vero E6, viral RNA at 72 h pi by RT-qPCR): 25.2 µg/mL (≈ 40.4 µM)
CC[C@H](C)C[C@H](C)CCCCCCCCC(=O)N[C@H]1C[C@@H](O)[C@@H](NCCN)NC(=O)[C@@H]2[C@@H](O)CCN2C(=O)[C@H]([C@H](O)CCN)NC(=O)[C@H]([C@H](O)[C@@H](O)c2ccc(O)cc2)NC(=O)[C@@H]2C[C@@H](O)CN2C(=O)[C@H]([C@@H](C)O)NC1=O [Caspofungin, reference compound]	129 (≈ 118 µM)	–	96.9	did not cause any cytotoxicity; also recorded: without any apparent cytotoxicity	3.7-log	7.9 × 10^2 RNA concentration per milliliter	1.8 × 10^4 RNA concentration per milliliter	2.1	140 (≈ 128 µM)	2.4	did not show any effect on the binding percentage	81	51.4	–	–	–	Maximal RNA reduction at 100 µg/mL (SARS-CoV-2 [2]; listed as caspofungin): 3.7 log
CCCCCCCCCC(=O)N[C@@H](Cc1c[nH]c2ccccc12)C(=O)N[C@H](CC(N)=O)C(=O)N[C@@H](CC(=O)O)C(=O)N[C@@H]1C(=O)NCC(=O)N[C@@H](CCCN)C(=O)N[C@@H](CC(=O)O)C(=O)N[C@H](C)C(=O)N[C@@H](CC(=O)O)C(=O)NCC(=O)N[C@H](CO)C(=O)N[C@@H]([C@H](C)CC(=O)O)C(=O)N[C@@H](CC(=O)c2ccccc2N)C(=O)O[C@@H]1C [Daptomycin, reference compound]	> 100	–	–	did not cause any cytotoxicity	0.3-log	–	–	–	> 100	–	–	–	–	0.7 (≈ 0.432 µM)	–	–	Maximal RNA reduction at 100 µg/mL (SARS-CoV-2 [2]; listed as daptomycin): no effect
CCCCCCCCCCCC(O)CC(=O)N[C@@H](CC(C)C)C(=O)N[C@H](CCC(=O)O)C(=O)N[C@H]1C(=O)N[C@H](C(C)C)C(=O)N[C@@H](CC(C)C)C(=O)N[C@H](CO)C(=O)N[C@@H](CC(C)C)C(=O)N[C@@H](CC(C)C)C(=O)N[C@H](CO)C(=O)N[C@@H](C(C)C)C(=O)O[C@@H]1C (some centres unmarked) [Orfamide B] (X2-L[dE][d(aThr)][dV]L[dS]LL[dS]V; ester 3-C)	–	6.3-log	–	–	–	–	–	–	–	–	–	–	–	–	14.6 (0.4) µg/mL	12.8 (4.1) µg/mL	Maximal RNA reduction at 100 µg/mL (SARS-CoV-2 [2]; 100 µg/mL, 72 h pi, compared to untreated infected cells, listed as orfamide B): 6.3 log
CC(C)CCCCCCCCC[C@@H]1CC(=O)N[C@@H](CCC(=O)O)C(=O)N[C@@H](CC(C)C)C(=O)N[C@H](CC(C)C)C(=O)N[C@@H](C(C)C)C(=O)N[C@@H](CC(=O)O)C(=O)N[C@H](CC(C)C)C(=O)N[C@@H](CC(C)C)C(=O)O1 [Surfactin] (EL[dL]VD[dL]L; linker N-C via X1)	51.5 (≈ 49.7 µM)	–	98.5	–	6.3-log	2.5 × 10^2 RNA concentration per milliliter	5.7 × 10^1 RNA concentration per milliliter	4.6	50 (≈ 48.2 µM)	2.9	34.7%	10.0	10.4	0.6 (≈ 0.579 µM)	–	–	viability at 72 h, 45 µg/mL ([1]; 45 µg/mL): ~0%; Viral RNA (SARS-CoV-2 [2]; 45 µg/mL): no viral RNA was detected; SARS-CoV-2 RNA concentration (SARS-CoV-2 [2]; 100 µg/mL, at every timepoint (24, 48, 72 h)): non-detectable levels; Reduction of viral RNA concentration (SARS-CoV-2 [2]; 24 h pi, serum diluted five times, […]): 1.1 log; Maximal RNA reduction at 100 µg/mL (SARS-CoV-2 [2]; listed as surfactin): 6.3 log; Reduction of RNA concentration (budding) (SARS-CoV-2 [6]): 1 log; RNA concentration per milliliter in supernatant (budding) (SARS-CoV-2 [6]; infected cells without treatment 8646.9): 858.7 RNA concentration per milliliter; SARS-CoV-2 infectivity (SARS-CoV-2 [7]): able to reduce SARS-CoV-2 infectivity; Reduction in viral titer (direct effect) (SARS-CoV-2 [8]; 100 µg/mL): 1.6 log; Reduction in viral titer (direct effect) (SARS-CoV-2 [8]; surfactin 35, WLIP 20, fengycin 50, caspofungin 100 µg/mL, serum diluted five times): did not directly inactivate SARS-CoV-2
Colistin (polymyxin E) [reference compound]	–	0.2-log	–	did not cause any cytotoxicity	–	–	–	–	–	–	–	–	–	–	>100.0 µg/mL	>100.0 µg/mL	Maximal RNA reduction at 100 µg/mL (SARS-CoV-2 [2]; 100 µg/mL, 72 h pi, compared to untreated infected cells, listed as colistin): no activity up to 100 µg/mL
